Data reported in ChEMBL document CHEMBL1158261, “Cercophorins A-C: novel antifungal and cytotoxic metabolites from the coprophilous fungus Cercophora areolata” (1996).

What was measured:
Format in all cases: functional
Sordaria fimicola = test: Antifungal activity against Sordaria fimicola NRRL 6459 assessed as reduction in radical growth at 200 ug/disk by centerpoint inoculation disk assay; design: scale not given: the % may be the effect or the level left
Ascobolus = test: Antifungal activity against Ascobolus furfuraceus NRRL 6460 assessed as reduction in radical growth at 200 ug/disk by centerpoint inoculation disk assay; design: scale not given: the % may be the effect or the level left
Staphylococcus aureus = test: […] activity against Staphylococcus aureus ATCC 29213 at 200 ug/disk by standard disk assay; settings: read-out: IZ
Bacillus subtilis = test: […] activity against Bacillus subtilis ATCC 6051 at 200 ug/disk by standard disk assay; settings: read-out: IZ

| Structure (SMILES) | Activity (Sordaria fimicola) | Activity (Ascobolus) | zone of inhibition at 200 µg/disc (Staphylococcus aureus) | zone of inhibition at 200 µg/disc (Bacillus subtilis) |
| --- | --- | --- | --- | --- |
| Cc1oc(=O)c2c(O)cc(O)c(C)c2c1C [DECARBOXYCITRINONE] | 100% | 100% |  |  |
| COC(=O)c1cc(OC)cc(OC(=O)c2c(O)cc3cc(C)oc(=O)c3c2O)c1O [CERCOPHORIN B] | 10% |  |  |  |
| COC(=O)c1cc(OC)cc(O)c1C(=O)c1c(O)cc2cc(C)oc(=O)c2c1O [CERCOPHORIN A] | 34% |  | 16 mm | 26 mm |
| COC(=O)c1cc(OC)cc(O)c1OC(=O)c1c(O)cc2cc(C)oc(=O)c2c1O [CERCOPHORIN C] | 51% |  |  |  |
